Laboratory results from patent US7271165B2, “Rifamycin analogs and uses thereof” (priority 2003, dated 2007).
In brackets after ≈: the same amount, converted by molar mass. Read-outs that look alike come from different tables or passages of the source.

What was measured:
H. flu = format: cell-based, H. influenza
S. aureus = test: MIC assay, S. aureus; format: cell-based, Staphylococcus aureus
E. faecalis = test: MIC assay, E. faecalis; format: cell-based, Enterococcus faecalis
E coli = test: MIC assay, E coli; format: cell-based
S. pneumo. = test: MIC assay, S. pneumo.; format: cell-based, Streptococcus pneumoniae

Compound	MIC (μg/mL) H. flu (H. flu; H. flu)	MIC (μg/mL) S. aureus (S. aureus)	MIC (μg/mL) E. faecalis (E. faecalis)	MIC (μg/mL) E coli (E coli)	MIC (μg/mL) S. pneumo. (S. pneumo.)	MIC (μg/mL) H. flu (H. flu)
CO[C@H]1/C=C/O[C@@]2(C)Oc3c(C)c(O)c4c(=O)c(c5oc6cc(N7CCC(NC(=O)OC(C)C)CC7)cc(O)c6nc-5c4c3C2=O)NC(=O)/C(C)=C\C=C\[C@H](C)[C@H](O)[C@@H](C)[C@@H](O)[C@@H](C)[C@H](O)[C@@H]1C [Compound 29]	1 µg/mL (≈ 1060 nM)	0.008 µg/mL (≈ 8.48 nM)	2 µg/mL (≈ 2120 nM)	>8 µg/mL	0.00012 µg/mL (≈ 0.127 nM)	
CO[C@H]1/C=C/O[C@@]2(C)Oc3c(C)c(O)c4c(=O)c(c5oc6cc(N7CCC(N(C)C)CC7)cc(O)c6nc-5c4c3C2=O)NC(=O)/C(C)=C\C=C\[C@H](C)[C@H](O)[C@@H](C)[C@@H](O)[C@@H](C)[C@H](OC(C)=O)[C@@H]1C [Compound 17, 3′-hydroxy-5′-(4-N,N-dimethylamino-1-piperidinyl)benzoxazinorifamycin]	1 µg/mL (≈ 1080 nM)	0.008 µg/mL (≈ 8.63 nM)	1 µg/mL (≈ 1080 nM)	8 µg/mL (≈ 8630 nM)	0.00012 µg/mL (≈ 0.129 nM)	
CO[C@H]1/C=C/O[C@@]2(C)Oc3c(C)c(O)c4c(=O)c(c5n(C)c6ccccc6nc-5c4c3C2=O)NC(=O)/C(C)=C\C=C\[C@H](C)[C@H](O)[C@@H](C)[C@@H](O)[C@@H](C)[C@H](O)[C@@H]1C [Compound 131]		0.5 µg/mL (≈ 661 nM)	2 µg/mL (≈ 2650 nM)	8 µg/mL (≈ 10600 nM)	0.5 µg/mL (≈ 661 nM)	2 µg/mL (≈ 2650 nM)
COC1C=COC2(C)Oc3c(C)c(O)c4c(=O)c(c5oc6cc(N7CC8CCCN(C(C)=O)C8C7)cc(O)c6nc-5c4c3C2=O)NC(=O)C(C)=CC=CC(C)C(O)C(C)C(O)C(C)C(O)C1C [Compound 46, 25-O-deacetyl-3′-hydroxy-5′-[1-acetyl-(4aR,7aR)-octahydro-6H-pyrrolo[3,4-b]pyridin-6-yl]benzoxazinorifamycin]	0.5 µg/mL (≈ 541 nM)	0.004 µg/mL (≈ 4.32 nM)	2 µg/mL (≈ 2160 nM)	>8 µg/mL	0.00006 µg/mL (≈ 0.0649 nM)	
COC1C=COC2(C)Oc3c(C)c(O)c4c(=O)c(c5oc6cc(N7CCC(C)(N(C)C)CC7)cc(O)c6nc-5c4c3C2=O)NC(=O)C(C)=CC=CC(C)C(O)C(C)C(O)C(C)C(OC(C)=O)C1C (stereo not drawn) [Compound 71, 3′-hydroxy-5′-[4-methyl-4-N,N-dimethylamino-1-piperidinyl]benzoxazinorifamycin]	0.5 µg/mL (≈ 531 nM)	0.008 µg/mL (≈ 8.5 nM)	0.25 µg/mL (≈ 266 nM)	4 µg/mL (≈ 4250 nM)	0.00012 µg/mL (≈ 0.128 nM)	
COC1C=COC2(C)Oc3c(C)c(O)c4c(=O)c(c5oc6cc(N7CCCC7)c(C7CCCCC7)cc6nc-5c4c3C2=O)NC(=O)C(C)=CC=CC(C)C(O)C(C)C(O)C(C)C(O)C1C (stereo not drawn) [Compound 115]	8 µg/mL (≈ 8950 nM)	2 µg/mL (≈ 2240 nM)	>8 µg/mL	>8 µg/mL	0.25 µg/mL (≈ 280 nM)	
CCOC(=O)N1CCCC2CN(c3cc(O)c4nc5c6c7c8c(C)c(O)c6c(=O)c(c-5oc4c3)NC(=O)C(C)=CC=CC(C)C(O)C(C)C(O)C(C)C(O)C(C)C(OC)C=COC(C)(O8)C7=O)CC21 (mixture of isomers) [Compound 42, 25-O-deacetyl-3′-hydroxy-5′-[1-ethylcarbamyl-(4aR,7aR)-octahydro-6H-pyrrolo [3,4-b]pyridin-6-yl]benzoxazinorifamycin]	0.5 µg/mL	0.008 µg/mL	2 µg/mL	8 µg/mL	0.00012 µg/mL	
COC1C=COC2(C)Oc3c(C)c(O)c4c(=O)c(c5oc6cc(N7CC8CCCN(C)C8C7)cc(O)c6nc-5c4c3C2=O)NC(=O)C(C)=CC=CC(C)C(O)C(C)C(O)C(C)C(O)C1C [Compound 59, 25-O-deacetyl-3′-hydroxy-5′-[1-methyl-(4aS,7aS)-octahydro-6H-pyrrolo[3,4-b]pyridin-6-yl]benzoxazinorifamycin]	0.12 µg/mL (≈ 134 nM)	0.004 µg/mL (≈ 4.46 nM)	0.06 µg/mL (≈ 66.9 nM)	4 µg/mL (≈ 4460 nM)	0.001 µg/mL (≈ 1.11 nM)	
COC1C=COC2(C)Oc3c(C)c(O)c4c(=O)c(c5oc6cc(N7CC8C(C7)C8NC(=O)OCC[Si](C)(C)C)cc(O)c6nc-5c4c3C2=O)NC(=O)C(C)=CC=CC(C)C(O)C(C)C(O)C(C)C(OC(C)=O)C1C [Compound 2, 3′-hydroxy-5′-[6-(2-trimethylsilyl)ethylcarbamyl-(1R,5S)-3-azabicyclo[3.1.0]hex-3-yl]benzoxazinorifamycin]	>8 µg/mL	1 µg/mL (≈ 960 nM)	>8 µg/mL	>8 µg/mL	0.03 µg/mL (≈ 28.8 nM)	
COC1C=COC2(C)Oc3c(C)c(O)c4c(=O)c(c5oc6cc(N(C)C7CCN(C)CC7)cc(O)c6nc-5c4c3C2=O)NC(=O)C(C)=CC=CC(C)C(O)C(C)C(O)C(C)C(O)C1C (stereo not drawn) [Compound 126]	0.25 µg/mL (≈ 282 nM)	0.004 µg/mL (≈ 4.52 nM)	0.5 µg/mL (≈ 565 nM)	4 µg/mL (≈ 4520 nM)	0.00025 µg/mL (≈ 0.282 nM)	
CCCS(=O)(=O)NC1CCN(c2cc(O)c3nc4c5c6c7c(C)c(O)c5c(=O)c(c-4oc3c2)NC(=O)C(C)=CC=CC(C)C(O)C(C)C(O)C(C)C(O)C(C)C(OC)C=COC(C)(O7)C6=O)CC1 (stereo not drawn) [Compound 67]	0.12 µg/mL (≈ 125 nM)	0.008 µg/mL (≈ 8.31 nM)	0.5 µg/mL (≈ 519 nM)	>8 µg/mL	0.001 µg/mL (≈ 1.04 nM)	
3′-hydroxy-5′-(4-ethylcarbamyl-1-piperidinyl)benzoxazinorifamycin [Compound 1]	2 µg/mL	0.008 µg/mL	2 µg/mL	>8 µg/mL	0.00025 µg/mL	
COC1C=COC2(C)Oc3c(C)c(O)c4c(=O)c(c5oc6cc(N7CCC(C)(NC(C)=O)CC7)cc(O)c6nc-5c4c3C2=O)NC(=O)C(C)=CC=CC(C)C(O)C(C)C(O)C(C)C(O)C1C (stereo not drawn) [Compound 74, 25-O-deacetyl-3′-hydroxy-5′-[4-methyl-4-acetylamino-1-piperidinyl]benzoxazinorifamycin]	0.12 µg/mL (≈ 131 nM)	0.03 µg/mL (≈ 32.9 nM)	0.5 µg/mL (≈ 548 nM)	>8 µg/mL	0.001 µg/mL (≈ 1.1 nM)	
COC1C=COC2(C)Oc3c(C)c(O)c4c(=O)c(c5oc6cc(N7CCN(C8CCN(C)CC8)CC7)cc(O)c6nc-5c4c3C2=O)NC(=O)C(C)=CC=CC(C)C(O)C(C)C(O)C(C)C(O)C1C (stereo not drawn) [Compound 95]	1 µg/mL (≈ 1060 nM)	0.015 µg/mL (≈ 16 nM)	0.5 µg/mL (≈ 532 nM)	>8 µg/mL	0.002 µg/mL (≈ 2.13 nM)	
CCOC(=O)N1CCCC2CN(c3cc(O)c4nc5c6c7c8c(C)c(O)c6c(=O)c(c-5oc4c3)NC(=O)C(C)=CC=CC(C)C(O)C(C)C(O)C(C)C(OC(C)=O)C(C)C(OC)C=COC(C)(O8)C7=O)CC21 (single isomer, unassigned) [Compound 40]	0.5 µg/mL (≈ 501 nM)	0.06 µg/mL (≈ 60.2 nM)	1 µg/mL (≈ 1000 nM)	>8 µg/mL	0.008 µg/mL (≈ 8.02 nM)	
COc1c(N2CCCC2)cc(C)c2nc3c4c5c6c(C)c(O)c4c(=O)c(c-3oc12)NC(=O)C(C)=CC=CC(C)C(O)C(C)C(O)C(C)C(O)C(C)C(OC)C=COC(C)(O6)C5=O (stereo not drawn) [Compound 118]	0.12 µg/mL (≈ 140 nM)	0.06 µg/mL (≈ 70.1 nM)	2 µg/mL (≈ 2340 nM)	8 µg/mL (≈ 9350 nM)	0.03 µg/mL (≈ 35 nM)	
COC1C=COC2(C)Oc3c(C)c(O)c4c(=O)c(c5oc6cc(N7CCC(F)(F)CC7)ccc6nc-5c4c3C2=O)NC(=O)C(C)=CC=CC(C)C(O)C(C)C(O)C(C)C(O)C1C (stereo not drawn) [Compound 112]	0.25 µg/mL (≈ 290 nM)	0.03 µg/mL (≈ 34.8 nM)	1 µg/mL (≈ 1160 nM)	>8 µg/mL	0.015 µg/mL (≈ 17.4 nM)	
CCNC(=O)NC1CCN(c2cc(O)c3nc4c5c6c7c(C)c(O)c5c(=O)c(c-4oc3c2)NC(=O)/C(C)=C\C=C\[C@H](C)[C@H](O)[C@@H](C)[C@@H](O)[C@@H](C)[C@H](OC(C)=O)[C@H](C)[C@@H](OC)/C=C/O[C@@](C)(O7)C6=O)CC1 [Compound 34, 3′-hydroxy-5′-[4-ethyluryl-1-piperidinyl]benzoxazinorifamycin]	0.5 µg/mL (≈ 515 nM)	0.03 µg/mL (≈ 30.9 nM)	2 µg/mL (≈ 2060 nM)	8 µg/mL (≈ 8250 nM)	0.001 µg/mL (≈ 1.03 nM)	
